pEC50: −log10 of the molar value.
Columns and labels:
Type in all cases: cell-based, Hamster
[1] = test system: Receiver cell line (CHO-K1 cells); assay: Receiver cell survival with IAA and blasticidin; settings: IAA added to media containing blasticidin; four days; dose-dependent
Excerpt: (§1) FIGS. 1A-1D depict non-limiting exemplary embodiments and data showing the plant hormone auxin allows private-channel mammalian cell-cell communication. […] Middle: Engineered cells that can send and receive the signal simultaneously can respond to their own population size. Right: coupling the sending-receiving function with cell survival in a negative feedback can enable population control. (FIG. 1B) Auxin Receiver cells constitutively express a fluorescent target fusion protein, mCherry-AID-BlastR, as well as the F-box protein osTIR1. […] The response of mCherry fluorescence to two different species of auxin (IAA and NAA) was measured after two days of treatment (dots). […] Cells were counted by flow cytometry (n=3, error bar=standard deviation). […]
Flow cytometry by trypsinizing 0.25% trypsin-EDTA (GIBCO) for 1 min at room temperature. […] Cells were then filtered through a 40 μm cell strainer and analyzed by flow cytometry (MACSQuant VYB, Miltenyi or CytoFLEX, Beckman Coulter). […] All fluorescence data were acquired as the median value of the gated population. For counting cells, 1000 CountBright beads (Life Technologies) were spiked into the sample before filtering, gated out by their fluorescence in analysis and used to estimate cell number in each sample.

mCherry-AID-Blast R [2] = biological target: T1, mCherry-AID-Blast R (UniProt P93830+Q7XVM8, DEL133-229); assay: Auxin regulation of mCherry-AID-BlastR fluorescence in Receiver cells; settings: Receiver CHO-K1 cells, two days of treatment, Michaelis-Menten fit; read-out: EC50, reduction of mCherry fluorescence
T1 construct: expressed in transfected cells; 'Receiver' line
Excerpt: as §1
To establish and characterize auxin regulation of mammalian cell growth, auxin sensing was coupled to drug resistance and fluorescence. Specifically, blasticidin S deaminase (Blast R), whose protein product is necessary for survival in the presence of blasticidin, was fused to AID and mCherry domains, allowing auxin-dependent degradation and fluorescent readout of protein concentration, respectively. […]
To fit the mCherry's response curve to auxin and population (FIG. 1C, FIGS. 3A and 3B; FIGS. 7A and 7B), it was assumed the log of fluorescence (F) follows an inverted Michaelis-Menten's equation as follow: […]

parental cells = assay: Parental cells cultured with IAA and blasticidin (pilot); settings: cultured in the presence of IAA and blasticidin
Protocol: FIGS. 14A-14D depict non-limiting exemplary data showing simple negative feedback enables cell density-dependent killing. (FIGS. 14A-14B) Long-term culture traces under 50 μg/ml and 100 μg/ml blasticidin conditions. Experimental setups are the same as FIG. 11B. […] A cell line collected from the experiment described in (FIG. 14D) was cultured, in parallel with the parental line, with different IAA and blasticidin combinations for 4 days. Survival rates were normalized to the parental line, and each bar is from a triplet. […] Cells were seeded into a 24-well imaging plate with 50 μg/ml of blasticidin solely or with 100 μM IAA or IAM, and no cells survived the combined IAA and blasticidin treatment. Each trace reflects an average of 12 positions in a sample well.
First, resistance mutations occurred in separately maintained, long-term cultures, and therefore could not spread from one culture to another. […] While sensing mutations are likely responsible at least in part for the mutant growth advantage, their specific effects in a parental background was not characterized. […] However, as described herein, a paradoxical circuit designs provide robust population control.

Sender-Receiver-PIN2 = assay: Density-dependent survival of Sender-Receiver-PIN2 cells in blasticidin; settings: media with blasticidin, 4 days
Protocol: (§2) FIGS. 3A-3D depict non-limiting exemplary embodiments and data showing Sender-Receiver cells sense their population density and regulate survival accordingly. (FIGS. 3A-3B) Sender-Receiver and Sender-Receiver-PIN2 cells perform quorum sensing. For both plots, cells were seeded at different densities and induction conditions, with either of the two auxins (saturating signaling) or their precursors (to allow quorum sensing). mCherry fluorescence was assayed after two days as a reporter of auxin sensing. Inset: Cells in B express the transporter PIN2, which actively exports auxin. Data were fitted onto an inverted Michaelis-Menten's function on log scale (see FIG. 7B for fitted parameters). (FIG. 3C) Sender-Receiver-PIN2 cells sense population size per unit volume. Cells were grown for two days at 6 different densities for each media volume, and cultured on a rocker for better mixing. (FIG. 3D) Sender-Receiver-PIN2 triggers cell death at high population density. Cells were seeded at different confluence levels, grown for four days in media with 50 μg/ml blasticidin and IAM, IAA, or no auxin (Error bars are standard deviation, n=3)).
Linking quorum sensing to cell survival could enable cell population control (FIG. 1A, right). […]

mCherry-AID-Blast R [3] = biological target: T1, mCherry-AID-Blast R; assay: Conditioned media from Sender-Receivers applied to Receivers; settings: 2 days conditioning, diluted into an equal volume of fresh media
Protocol: FIGS. 2A-2E depict non-limiting exemplary embodiments and data showing Sender-Receiver cells produce and respond to auxin. […] (FIG. 2B) Stable expression of iaaH in Receiver cells allows them to produce auxin from precursors (blue square). (FIG. 2C) Conditioned media experiment (schematic). Fresh culture media with or without precursors was added to plated sender cells, collected, mixed at 1:1 ratio with standard fresh media, and then applied to receiver cells. (FIG. 2D) iaaH can produce IAA and NAA auxins from IAM and NAM precursors, respectively. Standard media, with or without precursors, was conditioned by Sender-Receivers or standard CHO-K1 cells for 48 hours and applied to Receiver cells for another two days. Receivers cultured with fresh media with or without auxins were also assayed as controls. Data are normalized to Receiver cell fluorescence treated with media conditioned by CHO-K1 cells. Error bars represent standard deviation of 3 replicates. (FIG. 2E) Auxin senders can generate an auxin gradient. Sender-Receivers (green) were seeded within a 7 mm×7 mm square at the edge of a 60 mm dish, and Receivers were plated everywhere else (no fluorescence or red). One day after plating, the media was replaced with fresh media containing low-melting-point agarose, with or without IAM (Methods). Plates were imaged after two additional days of culture. […]

Sender-Receiver cells = assay: Quorum sensing of Sender-Receiver cells (reporter fluorescence versus population density); settings: Sender-Receiver cells without PIN2, two days
Protocol: as §2, with “Cells were seeded at different confluence levels, grown for four days in media with 50 μg/ml blasticidin and IAM, IAA, or no auxin (Error bars are standard deviation, n=3)).” left out
It was next asked whether Sender-Receiver cells could sense their own population density by producing auxin at a rate proportional to population size and sensing auxin concentration in the local environment (quorum sensing, FIG. 1A, middle panel). The dependence of reporter expression on cell population density in the presence of concentrations of each precursor sufficient to generate saturating levels of auxin was analyzed. […]

Paradaux cells = assay: Paradaux cell survival versus auxin with AP1903 and/or blasticidin, and model parameter fitting
Excerpt: FIGS. 4A-4G depict non-limiting exemplary embodiments and data showing paradoxical architecture reduces susceptibility to cheater mutations. (FIG. 4A) In the paradoxical architecture, the same signal inhibits growth (red pathway) and death (green pathway). This can produce a window of auxin concentrations leading to positive net growth (light blue region). Without mutation, the paradoxical and negative feedback circuits operate similarly around a stable equilibrium point of large population size (solid dots in the left panels). Mutations that eliminate sensing make both death and growth independent of auxin concentration (right panels), which selects against mutations in the paradoxical circuit due to negative net growth (FIG. 4B) In the paradoxical circuit implementation, auxin regulates growth through Blast^R (upper path), and also regulates apoptosis via iCasp9 (lower path), each with distinct fluorescent protein readouts and a small molecule (blasticidin and AP1903) as a control switch. (FIG. 4C) The full paradoxical circuit can be encoded as a single open reading frame, with distinct proteins separated by T2A peptides (grey squares). (FIG. 4D) Paradaux cells respond to auxin in a biphasic manner. Cells were seeded at about 1/8 confluence (grey dashed line) and pretreated with NAA for one day, then treated with combinations of NAA, blasticidin (20 μg/ml) and AP1903 (50 nM) for another 3 days, and imaged. Pink, green, and blue dots show the mean and standard deviation of three replicates in the presence of AP1903, blasticidin, or both, respectively. […] Blue dashed lines indicate predictions for the fully operational circuit based on the green and red curves. Dotted blue line is the model prediction when the synergy term is included. (FIG. 4E) Different classes of behavior can occur in different parameter regimes. Using the model auxin-dependent growth was simulated in different parameter regimes and identified five distinct regimes (indicated schematically as insets). Using this classification, growth curves were numerically analyzed and sorted for each concentration of blasticidin and AP1903 (central plot). The blue dot indicates the blasticidin and AP1903 concentrations used in the time-lapse movie analysis. The grey region indicates curves that could not be classified into one of these categories (0.68% of total, see FIG. 9F and Supplementary text). (FIG. 4F). For each expression level, the percent of blasticidin-AP1903 concentrations that generate paradoxical behavior was analyzed, similar to FIG. 4E. Optimizing the expression and ratio of Blast R and iCasp9 can widen the paradoxical regime. (FIG. 4G) Dynamic simulations show the Paradoxical Control circuit provides evolutionary robustness. For the negative feedback system, tic and βC and βsyn are set to zero. Mutated strains were simulated with auxin (A) fixed to zero, representing sensing deficient mutations. On day 25, 50, 75 and 100, mutant cells (1% of the population cap) were introduced into the simulated system to test robustness to mutations. These mutants take over in the negative feedback circuit (top) but not the paradoxical circuit (bottom). Dashed line indicates carrying capacity.
To encode the Paradaux circuit, a single multi-protein construct expressing osTIR1, the auxin-regulated iCasp9 system, and the auxin-regulated Blast R construct described above was designed (FIG. 4C). To eliminate one potential mechanism for evolutionary escape, Blast^R was positioned at the C-terminal end of the construct, so that premature stop codon mutations would deactivate Blast®, decreasing survival. The construct was integrated to create stable monoclonal CHO-K1 cell lines for further analysis. […]

[4] = fitted value, major Paradaux line (1)
[5] = fitted value, second Paradaux line (2)

T1 sequence (P93830 65-132 limits assumed, stated change not applied): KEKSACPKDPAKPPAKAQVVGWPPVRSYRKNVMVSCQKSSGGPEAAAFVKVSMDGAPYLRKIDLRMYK
T1 sequence (Q7XVM8 whole entry, stated change not applied): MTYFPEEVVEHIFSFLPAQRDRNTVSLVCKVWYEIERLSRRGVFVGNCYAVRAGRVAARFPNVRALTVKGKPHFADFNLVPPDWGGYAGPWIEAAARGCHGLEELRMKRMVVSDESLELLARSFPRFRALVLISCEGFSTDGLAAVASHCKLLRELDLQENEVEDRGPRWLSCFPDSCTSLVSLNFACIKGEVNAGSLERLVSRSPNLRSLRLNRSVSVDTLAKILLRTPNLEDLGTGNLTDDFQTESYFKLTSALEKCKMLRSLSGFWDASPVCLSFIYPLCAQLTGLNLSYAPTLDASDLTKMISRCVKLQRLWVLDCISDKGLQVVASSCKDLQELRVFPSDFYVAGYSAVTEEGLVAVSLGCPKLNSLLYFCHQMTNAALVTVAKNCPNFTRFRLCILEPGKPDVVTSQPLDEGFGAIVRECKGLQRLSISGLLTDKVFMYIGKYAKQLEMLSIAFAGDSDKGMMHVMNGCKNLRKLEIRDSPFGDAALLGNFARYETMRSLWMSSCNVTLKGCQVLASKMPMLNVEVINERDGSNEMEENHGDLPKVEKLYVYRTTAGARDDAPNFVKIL
T1 sequence (Q9WTX5 whole entry partner): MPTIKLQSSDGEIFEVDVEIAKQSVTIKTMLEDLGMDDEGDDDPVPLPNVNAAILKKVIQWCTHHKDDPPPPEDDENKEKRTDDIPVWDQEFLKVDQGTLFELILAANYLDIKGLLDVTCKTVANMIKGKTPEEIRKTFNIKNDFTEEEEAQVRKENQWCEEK

Molecule: O=C(O)Cc1c[nH]c2ccccc12 [IAA, indole-3-acetic acid]
- Effect on cell survival [1]: inhibit cell survival
- pEC50 (mCherry-AID-Blast R [2]): 6.96
- Time to death of parental cells (parental cells): ≤ 3 days

Molecule: NC(=O)Cc1c[nH]c2ccccc12 [IAM, indole-3-acetamide]
- Cell numbers at high seeding density versus no IAM or IAA (Sender-Receiver-PIN2): reduced cell numbers
- Reduction of mCherry-AID-BlastR in Receivers by media conditioned by Sender-Receivers with precursor (mCherry-AID-Blast R [3]): comparable to those generated by saturating concentrations of IAA
- Reporter fluorescence versus population density with precursor (Sender-Receiver cells): strong, but density-independent, decrease in fluorescence

Molecule: O=C(O)Cc1cccc2ccccc12 [NAA, 1-napthalenatic acid]
- pEC50 (mCherry-AID-Blast R [2]): 6.12

Molecule: NC(=O)Cc1cccc2ccccc12 [NAM, 1-naphthaleneacetamide]
- Reduction of mCherry-AID-BlastR in Receivers by media conditioned by Sender-Receivers with precursor (mCherry-AID-Blast R [3]): diminished response compared to NAA
- Reporter fluorescence versus population density with precursor (Sender-Receiver cells): decreased in response to increasing population density

Molecule: CN(CC[C@H](N)CC(=O)N[C@H]1C=C[C@H](n2ccc(N)nc2=O)O[C@@H]1C(=O)O)C(=N)N [blasticidin]
- n1, cooperativity of the blasticidin regulation (Paradaux cells; [4]): 2.26(1); DL
- βB, maximum net growth reduction by blasticidin (Paradaux cells; [4]): 0.0874(1); hr^−1
- κB, effective strength of blasticidin (Paradaux cells; [4]): 0.045(1); (μg/ml)^−1
- n1, cooperativity of the blasticidin regulation (Paradaux cells; [5]): 2.28(2) DL
- βB, maximum net growth reduction by blasticidin (Paradaux cells; [5]): 0.147(2) hr^−1
- κB, effective strength of blasticidin (Paradaux cells; [5]): 0.069(2) (μg/ml)^−1

Molecule: auxin
- Survival of Paradaux cells as a function of auxin (Paradaux cells; both blasticidin and AP1903): biphasic survival curve
- κA, effective strength of auxin (Paradaux cells; fitted value): 1.316 µM⁻¹
- Survival of Paradaux cells as a function of auxin (Paradaux cells; in the presence of AP1903): increased monotonically
- Survival of Paradaux cells as a function of auxin (Paradaux cells; in the presence of blasticidin): decreased
